The values that follow are results of earlier work, collected in patent US8222237B2, “Progestational 3-(6,6-ethylene-17B-hydroxy-3-oxo-17A-pregna-4-ene-17A-yl)propionic acid G-lactones” (Evestra, Inc., priority 2008, dated 2012).

The structures appear in SMILES notation.

For series [1] the following is noted: acidic conditions such as encountered in the gastric environment.
For series [2] the following is noted: at various pH values.
The conditions of series [3]: from a single entity tablet.

As for `C[C@]12CCC(=O)C=C1[C@@H]1C[C@@H]1[C@H]1[C@@H]3[C@@H]4C[C@@H]4[C@@]4(CCC(=O)O4)[C@@]3(C)CC[C@@H]12` [drospirenone, 6β,7β,15β,16β-dimethylene-3-oxo-17α-pregn-4-ene-21,17-carbolactone], the “isomerization under acidic conditions” value in series [1] is “undergo isomerization to a form that is inactive”. The solubility in water entry in series [2] is “only sparingly soluble”. For the same compound, the absolute bioavailability entry in series [3] is on record as “about 76%”.
